Article PMC4465889 (Biochemical and biophysical research communications, 2014)

Legend:
[1] = target: L192A mutant human CB2 receptor (Homo sapiens, UniProt P34972, L192A); format: binding
[2] = target: V113L mutant human CB2 receptor (Homo sapiens, UniProt P34972, V113L); format: binding
Chain of V113L mutant human CB2 receptor (P34972 whole entry V113L): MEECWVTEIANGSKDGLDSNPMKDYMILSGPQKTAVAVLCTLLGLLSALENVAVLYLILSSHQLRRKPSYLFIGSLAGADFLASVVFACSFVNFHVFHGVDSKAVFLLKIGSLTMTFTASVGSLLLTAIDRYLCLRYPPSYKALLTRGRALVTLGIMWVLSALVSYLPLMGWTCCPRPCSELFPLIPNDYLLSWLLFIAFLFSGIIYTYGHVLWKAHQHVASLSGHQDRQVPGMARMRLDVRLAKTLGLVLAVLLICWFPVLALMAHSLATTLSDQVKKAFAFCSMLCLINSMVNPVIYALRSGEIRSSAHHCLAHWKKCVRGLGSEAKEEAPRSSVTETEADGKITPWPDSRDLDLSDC

Chain of L192A mutant human CB2 receptor (P34972 whole entry L192A): as the sequence (P34972 whole entry V113L) above, with L113V, L192A counted along it

SR144528
Reduction of binding compared to wild type ([1]; L192A mutant vs wild type CB2): 5 fold | Effect of substitution on CB2 binding affinity compared to the wild-type ([1]; L192A mutant vs wild type CB2, in words): slightly reduced | Reduction of binding compared to wild type ([2]; V113L mutant vs wild type CB2): 6 fold | Effect of substitution on CB2 binding affinity compared to the wild-type ([2]; V113L mutant vs wild type CB2, in words): slight reduction
